# System: hippocampal neural cells
# Assay: 3H-thymidine uptake in cultured hippocampal neural cells
# Format: cell-based, rat
# Conditions: 24 hours, 37° C.
# Procedure: Biochemical analyses of 3H-thymidine uptake, as a measure of DNA synthesis, were used as the experimental vehicle to confirm the morphological observations described in examples 1 and 2. […] Thus, the range for the neurogenic effect of THP on neural cells is quite is sensitive and quite broad.
# For these experiments, cultured hippocampal neural cells, derived from embryonic day 18 rat fetuses, were allowed to adhere to polylysine coated plastic cover-slips for 40 min in serum containing medium. Following adhesion, neurons were exposed to […] 3H-thymidine in the presence or absence of 100-500 nM THP and allowed to incubate at 37° C. for 24 hours in the absence or presence of the indicated steroids. Data are expressed as mean+SEM, *p<. 05,**p<0.01, ***p<0.001.
# The time course of THP-induced 3H-thymidine incorporation in hippocampal neuronal cells is shown in FIG. 9 where cultured hippocampal nerve cells, derived from embryonic day 18 rat fetuses, were allowed to adhere to polylysine coated plastic cover-slips for 40 min in serum containing medium. Following adhesion, serum containing medium in the presence or absence of 10-250 nM THP plus […] 3H-thymidine and allowed to incubate at 37 for 1, 8 or 24 hours. Data are expressed as mean±SEM, *p<0.05,**p<0.01,***p<0.001.
row,Compound,effect on 3H-thymidine incorporation (steroid specificity)
1,"CC(=O)[C@H]1CC[C@H]2[C@@H]3CC[C@@H]4C[C@@H](O)CC[C@]4(C)[C@H]3CC[C@]12C [5ss, 3ss-THP]",no effect
2,"5α,3α-pregnan-diol",significant decrease
3,"5α, 3P-pregnen-3-one",no effect
4,CC(=O)[C@H]1CC[C@H]2[C@@H]3CCC4=CC(=O)CC[C@]4(C)[C@H]3CC[C@]12C [Progesterone],modest increase
5,pregnenolone sulfate,significant decrease
6,"CC(=O)[C@H]1CC[C@H]2[C@@H]3CC[C@H]4C[C@@H](O)CC[C@]4(C)[C@H]3CC[C@]12C [5cc, 3ss-THP]",no effect
7,"5α,3α-pregnan-triol",significant decrease
